SMILES strings stand for the structures.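 Protocol summary: plate cells (96-well), add compound at 5 concentrations, incubate 48 h, interpolate endpoints linearly. At the TGI there is no net growth.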 A value given as a limit tells only on which side of the number the result lay.

Holding throughout (test): NCI anticancer screen, dose series, 48 h
Assay [1] concerns A498 renal.
Assay [2] has as its system CCRF-CEM leukemia.
In assay [3] the test system is EKVX NSCLC.
Assay [4] relates to HCT-15 colon.
In assay [5] the test system is HS 578T breast.
Assay [6] has as its system IGROV1 ovarian.
Assay [7] concerns MDA-MB-231 breast.
The test system of assay [8] is OVCAR-4 ovarian.
Assay [9] has as its system OVCAR-5 ovarian.
Assay [10] has as its system OVCAR-8 ovarian.
The subject of assay [11] is SK-MEL-28 melanoma.
Assay [12] has as its system SK-OV-3 ovarian.
Assay [13] relates to SN12C renal.
Assay [14] deals with UO-31 renal.
The test system of assay [15] is MALME-3M melanoma.
Assay [16] concerns MOLT-4 leukemia.
Assay [17] deals with NCI-H460 lung.
In assay [18] the test system is SNB-75 CNS.
For assay [19], the system named is RXF 393 renal.

Take `Nc1ncnc2c1cnn2Cc1cn(COCC(O)CO)nn1` (stereo not drawn): the TGI in assay [1] is > 100 µM; in assay [2] it was > 100 µM; in assay [3] it was > 100 µM; in assay [4], > 100 µM; in [5], 32.8 µM; in [6], > 100 µM. The TGI in assay [7], in [8], in assay [9], in assay [10], in assay [11] and in [12] was > 100 µM each time. The TGI in [13] and in assay [14] was > 100 µM throughout.

As to `O=C1CCCCC/C1=C\c1ccc(Cl)cc1`, the TGI in assay [1] is > 100 µM; in assay [2], 50.3 µM; in [3], > 100 µM; in assay [4] it was > 100 µM; in assay [5], 57.8 µM; in assay [6], > 100 µM. The TGI in assay [15] is > 100 µM; in [7] it was > 100 µM; in assay [16], 95.1 µM; in [17], > 100 µM; in [8] it was 84.9 µM; in assay [9], > 100 µM. Also, the TGI is > 100 µM in assay [11]; > 100 µM in [12]; > 100 µM in assay [13]; 81.3 µM in assay [18]; > 100 µM in assay [14].

As for `COC(=O)C1=C(C)NC(C)=C(C(=O)OC)C1c1cccc(NO)c1`, the TGI was > 100 µM in assay [1]; > 100 µM in [2]; 70.9 µM in assay [3]; 41.4 µM in [4]; 64.4 µM in assay [5]; 30.4 µM in [6]. Also, the TGI was 29.9 µM in assay [15]; 31.4 µM in [7]; 31.4 µM in assay [17]; 27.8 µM in assay [8]; 30.1 µM in assay [9]; 30.2 µM in [10]. Also, the TGI in [19] was 27.1 µM; in assay [11], 28.3 µM; in assay [12] it was > 100 µM; in assay [13] it was 32.9 µM; in assay [14], 23.6 µM.

Consider `Cc1ccc(-c2c(C#N)c(N)nc3c2CCS(=O)(=O)c2ccccc2-3)cc1`, for which the TGI in assay [1], in assay [4], in assay [5], in assay [6], in assay [15] and in assay [7] was > 100 µM in each case. The TGI was > 100 µM in assay [17]; > 100 µM in [8]; > 100 µM in assay [10]; > 100 µM in assay [11]; > 100 µM in [13]; 78.9 µM in assay [18]. For the same compound, the TGI in [14] was > 100 µM.

For `c1ccc(C2OCC(OC3CCCCO3)CO2)cc1` (stereo not drawn), the TGI in assay [1], in assay [3], in [4], in assay [5], in assay [6] and in assay [15] was > 100 µM throughout. Also, the TGI was > 100 µM in assay [7]; 68.2 µM in [16]; > 100 µM in assay [17]; > 100 µM in assay [8]; > 100 µM in [9]; > 100 µM in assay [10]. The TGI in [11], in assay [12], in [13] and in [14] was > 100 µM in each case.

For `CCOC(=O)Nc1nn(C)c(=NCc2ccccc2)s1`, the TGI in [1], in assay [2], in assay [3], in assay [4], in assay [5] and in assay [6] was > 100 µM in each case. Further, the TGI in [7], in [16], in assay [17], in [8], in assay [9] and in [19] was > 100 µM throughout. Further, the TGI in assay [11], in assay [12], in assay [13], in assay [18] and in assay [14] was > 100 µM each time.

`CC(C)(CO)NC(=O)Nc1c(C(F)(F)F)cc(-c2ccccc2)[nH]c1=O`: the TGI in assay [1], in [2], in assay [3], in assay [4], in [5] and in assay [6] was > 100 µM in each case. Besides, the TGI in assay [15], in [7], in [16], in assay [17], in assay [9] and in assay [10] was > 100 µM throughout. Moreover, the TGI in assay [19], in assay [11], in assay [12], in assay [13] and in assay [14] was > 100 µM in each case.

On to `O=C(Cc1ccccc1)NCCCN(CCCCN(CCCNC(=O)Cc1ccccc1)C(=O)OCc1ccccc1)C(=O)OCc1ccccc1`, for which the TGI in assay [1] is > 100 µM; in assay [2], > 29.5 µM; in [3], > 100 µM; in [4], > 100 µM; in assay [5] it was > 100 µM; in [6], > 100 µM. The TGI in assay [7] is > 100 µM; in assay [16] it was > 100 µM; in assay [17] it was > 100 µM; in assay [8], > 28.6 µM; in assay [9] it was > 100 µM; in assay [10], > 100 µM. The TGI in [19] was > 100 µM; in assay [11] it was > 100 µM; in [12], > 100 µM; in [13] it was > 100 µM; in assay [14] it was 6.42 µM.

`O=C(/C=C/c1ccc(Cl)cc1)c1cccs1`: the TGI was 56 µM in [1]; 98.1 µM in assay [2]; 68 µM in assay [3]; 49.9 µM in assay [4]; > 100 µM in assay [5]; 75.3 µM in assay [6]. In addition, the TGI came to 36.7 µM in assay [15]; 39.9 µM in assay [7]; 52.8 µM in assay [16]; 35.4 µM in assay [17]; 56.2 µM in [10]; 54.2 µM in [11]. Further, the TGI in [12] is 77 µM; in assay [13], 33.2 µM; in assay [18] it was 43.4 µM; in assay [14] it was 31.9 µM.

Regarding `Clc1nc(NCCc2ccccc2)c2ncn(-c3ccccc3)c2n1`, the TGI is 41.9 µM in assay [1]; 68.3 µM in [3]; > 100 µM in assay [4]; 76.7 µM in assay [5]; > 100 µM in assay [6]; 52.4 µM in assay [15]. Moreover, the TGI in assay [7] is 62.8 µM; in assay [16], 51 µM; in assay [17], 33.7 µM; in [8], 42.1 µM; in assay [9] it was > 100 µM; in assay [10] it was 90.6 µM. Also, the TGI in assay [19] is > 100 µM; in assay [11] it was 94.1 µM; in assay [12], 60.7 µM; in assay [13], 85.4 µM; in assay [18], 90.4 µM; in assay [14], 43.1 µM.

As to `CC1(C)OC(=O)C2(O1)C(=O)C1CCCCC12` (stereo not drawn), the TGI in [1], in assay [2], in assay [3], in [4], in [5] and in [6] was > 100 µM in each case. Moreover, the TGI in assay [15], in [7], in [16], in [8], in assay [9] and in assay [10] was > 100 µM throughout. In addition, the TGI in assay [19], in assay [11], in assay [12], in assay [13] and in [14] was > 100 µM throughout.

`O=c1oc(-c2ccccc2)c(-c2ccccc2)n1-c1ccc(Br)cc1`: the TGI in assay [1], in assay [2], in [3], in [4], in assay [5] and in assay [6] was > 100 µM throughout. Also, the TGI in assay [7] is > 100 µM; in assay [16] it was > 100 µM; in [17] it was > 100 µM; in [8], 96.4 µM; in [9], > 100 µM; in assay [10] it was > 100 µM. Moreover, the TGI was > 100 µM in [19]; > 100 µM in assay [11]; > 100 µM in assay [12]; > 100 µM in assay [13]; 32.2 µM in assay [18]; > 100 µM in assay [14].

Regarding `C/C(=N\NC(=S)NC(C)(C)C)c1ccccn1`, the TGI is > 39.6 µM in assay [1]; > 100 µM in [3]; > 100 µM in [4]; > 100 µM in assay [5]; > 40.6 µM in assay [6]; > 79.5 µM in assay [15]. The TGI in assay [7] was > 100 µM; in [8], > 100 µM; in assay [10], > 36.6 µM; in assay [19] it was 23.2 µM; in assay [11] it was > 100 µM; in assay [12], 80.1 µM. In addition, the figures for the TGI in assay [13], in assay [18] and in [14] were > 88.5 µM, > 100 µM and 14.3 µM, respectively.

`CCOC(=O)C1(C/C=C\CBr)CCCCCCCCCCC1=O` (stereo not drawn): the TGI in assay [1] was 29.1 µM; in [3], 34.4 µM; in [4], 32.8 µM; in assay [5], 43.2 µM; in assay [6], 11.5 µM; in assay [15] it was 19.1 µM. The TGI in assay [7] is 17.8 µM; in assay [16], > 27 µM; in assay [17], 33 µM; in assay [8], 27.4 µM; in assay [9] it was 35.2 µM; in [10], 31.4 µM. Besides, the TGI is 25.4 µM in assay [19]; 30.7 µM in assay [11]; 31.2 µM in [12]; 28.4 µM in [13]; 26.9 µM in assay [18]; 15.2 µM in [14].

On to `Oc1ccc(/C=C/c2ccc3cccc(O)c3n2)cc1O`, for which the TGI in assay [1] is 30 µM; in assay [2], > 100 µM; in [3], 30.8 µM; in assay [4], > 100 µM; in assay [5] it was > 100 µM; in assay [6] it was > 100 µM. The TGI in assay [7] was 62.8 µM; in [16], 21.5 µM; in assay [17], 13.9 µM; in [8], > 100 µM; in assay [9] it was 46.3 µM; in [10], > 100 µM. In addition, the TGI was 7.4 µM in assay [19]; 89.5 µM in assay [11]; > 100 µM in [12]; 12.8 µM in [13]; 9.65 µM in assay [18]; 7.71 µM in assay [14].

As to `C=CCCCC1CCCNC1=S` (stereo not drawn), the TGI in [1], in [3], in [4], in assay [5], in assay [6] and in assay [7] was > 100 µM each time. Also, the TGI in [16], in assay [17], in assay [8], in assay [9], in assay [10] and in assay [19] was > 100 µM in each case. In addition, the TGI in [11], in [12], in [13], in assay [18] and in assay [14] was > 100 µM in each case.

As for `CC(=O)N(CN1C(=O)CCC1C(=O)O)c1cccc(O)c1` (stereo not drawn), the TGI in [1], in assay [2], in [3], in assay [4], in assay [5] and in [6] was > 100 µM each time. Moreover, the TGI in assay [15], in assay [7], in [16], in [17], in [8] and in [9] was > 100 µM each time. Besides, the TGI in assay [10], in assay [11], in assay [12], in [13], in assay [18] and in assay [14] was > 100 µM throughout.

The record behind these values is PubChem BioAssay (NCI).
